In PubChem BioAssay (NCI):
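Results reflect a 48-hour exposure of cells in 96-well plates to compound at five concentrations. The concentration for full growth arrest is given as TGI.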

Assays:
Test in all cases: DTP human tumour cell line panel, 48 h
[1] = test system: HS 578T breast
[2] = test system: MCF7 breast
[3] = test system: HCC-2998 colon
[4] = test system: NCI-H460 lung
[5] = test system: HCT-116 colon
[6] = test system: ACHN renal
[7] = test system: SR leukemia
[8] = test system: UACC-257 melanoma
[9] = test system: MDA-MB-231 breast
[10] = test system: OVCAR-8 ovarian
[11] = test system: SK-MEL-28 melanoma
[12] = test system: RPMI-8226 leukemia
[13] = test system: SK-OV-3 ovarian
[14] = test system: KM12 colon
[15] = test system: RXF 393 renal
[16] = test system: K-562 leukemia
[17] = test system: CAKI-1 renal
[18] = test system: MOLT-4 leukemia
[19] = test system: A498 renal
[20] = test system: EKVX NSCLC
[21] = test system: HOP-92 NSCLC
[22] = test system: SK-MEL-5 melanoma
[23] = test system: CCRF-CEM leukemia
[24] = test system: UO-31 renal
[25] = test system: COLO 205 colon
[26] = test system: SNB-19 CNS
[27] = test system: OVCAR-5 ovarian
[28] = test system: A549 NSCLC
[29] = test system: HL-60(TB) leukemia
[30] = test system: TK-10 renal
[31] = test system: PC-3 prostate
[32] = test system: HT29 colon
[33] = test system: M14 melanoma
[34] = test system: SW-620 colon
[35] = test system: NCI-H522 lung
[36] = test system: SN12C renal
[37] = test system: LOX IMVI melanoma
[38] = test system: MALME-3M melanoma
[39] = test system: SF-268 CNS
[40] = test system: NCI-H23 lung
[41] = test system: SK-MEL-2 melanoma
[42] = test system: IGROV1 ovarian
[43] = test system: OVCAR-3 ovarian
[44] = test system: MDA-N
[45] = test system: HOP-62 NSCLC
[46] = test system: SF-295 CNS
[47] = test system: HCT-15 colon
[48] = test system: U251 CNS
[49] = test system: UACC-62 melanoma
[50] = test system: OVCAR-4 ovarian
[51] = test system: SF-539 CNS
[52] = test system: 786-0 renal
[53] = test system: DU-145 prostate
[54] = test system: BT-549 breast
[55] = test system: SNB-75 CNS
[56] = test system: MDA-MB-435
[57] = test system: NCI/ADR-RES ovarian
[58] = test system: NCI-H226 lung

`CC1=C(Cl)C[C@@H](/C(C)=C\Cl)O[C@@]1(O)C(Br)Br` was tested, and the TGI [1] was greater than 100 µM, the TGI [2] was 49.3 µM and the TGI [3] was 99.6 µM. It also gave a TGI [4] greater than 100 µM, a TGI [5] greater than 100 µM and a TGI [6] of 75 µM. It also gave a TGI [7] of 84.6 µM, a TGI [8] greater than 100 µM and a TGI [9] of 41.7 µM. The TGI [10] was greater than 100 µM, the TGI [11] was greater than 100 µM and the TGI [12] was 65.8 µM. It also gave a TGI [13] greater than 100 µM, a TGI [14] greater than 100 µM and a TGI [15] of 62.2 µM. For the same compound, the TGI [16] was greater than 100 µM, the TGI [17] was 35.4 µM and the TGI [18] was greater than 100 µM. For the same compound, the TGI [19] was 98.4 µM, the TGI [20] was 80.3 µM and the TGI [21] was 53.2 µM. It also gave a TGI [22] of 54.9 µM, a TGI [23] of 57.5 µM and a TGI [24] of 72.7 µM. The TGI [25] was 88.5 µM, the TGI [26] was greater than 100 µM and the TGI [27] was 44.2 µM. The TGI [28] was 60.3 µM, the TGI [29] was 38.1 µM and the TGI [30] was greater than 100 µM. It also gave a TGI [31] greater than 100 µM, a TGI [32] greater than 100 µM and a TGI [33] of 67.7 µM. The TGI [34] was greater than 100 µM, the TGI [35] was 49.3 µM and the TGI [36] was 37.2 µM. It also gave a TGI [37] greater than 100 µM, a TGI [38] of 79.8 µM and a TGI [39] greater than 100 µM. The TGI [40] was greater than 100 µM, the TGI [41] was 73.8 µM and the TGI [42] was greater than 100 µM. The TGI [43] was 31.3 µM, the TGI [44] was 41.8 µM and the TGI [45] was greater than 100 µM. For the same compound, the TGI [46] was greater than 100 µM, the TGI [47] was 32.4 µM and the TGI [48] was greater than 100 µM. It also gave a TGI [49] greater than 100 µM, a TGI [50] greater than 100 µM and a TGI [51] greater than 100 µM. For the same compound, the TGI [52] was greater than 100 µM, the TGI [53] was 49.9 µM and the TGI [54] was 79.6 µM. For the same compound, the TGI [55] was greater than 100 µM and the TGI [56] was greater than 100 µM.

Compound `Clc1ccccc1NN(Cc1ccncc1)c1ccccc1Cl` has a TGI [1] of 48.6 µM, a TGI [2] of 53.5 µM and a TGI [5] of 25.7 µM. For the same compound, the TGI [6] was 35.6 µM, the TGI [7] was 32.2 µM and the TGI [9] was 27.8 µM. It also gave a TGI [10] of 29.3 µM, a TGI [11] of 40.7 µM and a TGI [12] of 42.2 µM. It also gave a TGI [13] of 44.9 µM, a TGI [14] of 36 µM and a TGI [15] of 31.8 µM. It also gave a TGI [16] of 30.2 µM, a TGI [18] of 33.9 µM and a TGI [19] of 33.7 µM. It also gave a TGI [20] of 30.1 µM, a TGI [21] of 18.2 µM and a TGI [22] of 27.6 µM. It also gave a TGI [24] of 63.3 µM, a TGI [25] of 32 µM and a TGI [26] of 37 µM. The TGI [27] was 38.4 µM, the TGI [28] was 29.8 µM and the TGI [29] was 37 µM. For the same compound, the TGI [31] was 28.9 µM, the TGI [32] was 26.1 µM and the TGI [33] was 35.7 µM. The TGI [34] was 35.1 µM, the TGI [35] was 29.6 µM and the TGI [36] was 26.5 µM. The TGI [37] was 30.3 µM, the TGI [38] was 35.9 µM and the TGI [39] was 36.2 µM. The TGI [40] was 29.2 µM, the TGI [41] was 28.6 µM and the TGI [42] was 27.7 µM. It also gave a TGI [43] of 26.3 µM, a TGI [44] of 27.8 µM and a TGI [57] of 32 µM. It also gave a TGI [45] of 29.2 µM, a TGI [46] of 31.6 µM and a TGI [47] of 34.3 µM. It also gave a TGI [48] of 26.4 µM, a TGI [49] of 30.7 µM and a TGI [50] of 25.2 µM. For the same compound, the TGI [58] was 39.3 µM, the TGI [51] was 36 µM and the TGI [52] was 26.6 µM. For the same compound, the TGI [53] was 34.8 µM, the TGI [54] was 33.7 µM and the TGI [55] was 32.1 µM. It also gave a TGI [56] of 29.7 µM.
